Measurements from publication PMC12087695, “A Phenotyping Tool for Seven Cytochrome P450 Enzymes and Two Transporters: Application to Examine the Effects of Clopidogrel and Gemfibrozil” (Clinical Pharmacology and Therapeutics, 2025).
Where two headings read alike, the source gives them in different places.

How the values were obtained:
[1] = Plasma pharmacokinetics of pretreatment drugs clopidogrel, gemfibrozil and their metabolites; assay type: in vivo; settings: human, after clopidogrel 300 mg single oral dose (phase IV)
Protocol: (§1) This open‐label cross‐over clinical trial included five study phases that each participant underwent in a randomized order (Table 1 ). There was at least 2‐week washout period between different study days.
(§2) On study days, venous blood samples from all participants were drawn from forearm vein cannulas before the administration of the pretreatment drugs and 5 minutes before and 0.5, 1, 1.5, 2, 3, 4, 6, 8, 12, and 23 hours after the administration of the index drugs for determination of index drug and metabolite concentrations. Additional venous blood samples for biomarker analyses were drawn before the administration of the pretreatment drugs and 5 minutes before and 3 hours after the administration of the index drugs. Standardized breakfast was served 1 hour, lunch 3 hours, and snacks 7 and 9 hours after the administration of index drugs. Blood glucose levels were monitored with CareSens Dual point‐of‐care blood glucose meter (i‐SENS Inc., Seoul, South Korea) at each venous blood sampling time point up to 12 hours after the administration of index drugs.
The quality control samples for each analyte at relevant concentrations were quantified with each batch of plasma samples.

[2] = system: CYP2B6; settings: index drug data, healthy volunteers
Protocol: as §1
(§3) On study days, venous blood samples from all participants were drawn from forearm vein cannulas before the administration of the pretreatment drugs and 5 minutes before and 0.5, 1, 1.5, 2, 3, 4, 6, 8, 12, and 23 hours after the administration of the index drugs for determination of index drug and metabolite concentrations. […] Blood glucose levels were monitored with CareSens Dual point‐of‐care blood glucose meter (i‐SENS Inc., Seoul, South Korea) at each venous blood sampling time point up to 12 hours after the administration of index drugs.
(§4) The flow rate was 0.3 mL/min, and the gradient program for the mobile phase B was from 20% to 90% over 7 minutes, wash at 90% 7–9.5 minutes, followed by balancing at 20% before next injection. […] The quality control samples for each analyte at relevant concentrations were quantified with each batch of plasma samples.
(§5) As for biomarkers, AUC0‐3h values in phases I–III and AUC0‐4h values in phases III–V for GCDCA‐3G and GCDCA‐3S and AUC0‐4h values in phases III and V for M430, M444, and solanidine were calculated with trapezoidal rule in Excel (Microsoft, Redmond, WA). […]

[3] = molecular target: T1, OATP1B3 (Homo sapiens, UniProt Q9NPD5); assay: OATP1B3 endogenous biomarker GCDCA-3S in plasma; settings: for OATP1B3 inhibition in the trial: GCDCA-3S biomarker data
T1 sequence (Q9NPD5 1-702): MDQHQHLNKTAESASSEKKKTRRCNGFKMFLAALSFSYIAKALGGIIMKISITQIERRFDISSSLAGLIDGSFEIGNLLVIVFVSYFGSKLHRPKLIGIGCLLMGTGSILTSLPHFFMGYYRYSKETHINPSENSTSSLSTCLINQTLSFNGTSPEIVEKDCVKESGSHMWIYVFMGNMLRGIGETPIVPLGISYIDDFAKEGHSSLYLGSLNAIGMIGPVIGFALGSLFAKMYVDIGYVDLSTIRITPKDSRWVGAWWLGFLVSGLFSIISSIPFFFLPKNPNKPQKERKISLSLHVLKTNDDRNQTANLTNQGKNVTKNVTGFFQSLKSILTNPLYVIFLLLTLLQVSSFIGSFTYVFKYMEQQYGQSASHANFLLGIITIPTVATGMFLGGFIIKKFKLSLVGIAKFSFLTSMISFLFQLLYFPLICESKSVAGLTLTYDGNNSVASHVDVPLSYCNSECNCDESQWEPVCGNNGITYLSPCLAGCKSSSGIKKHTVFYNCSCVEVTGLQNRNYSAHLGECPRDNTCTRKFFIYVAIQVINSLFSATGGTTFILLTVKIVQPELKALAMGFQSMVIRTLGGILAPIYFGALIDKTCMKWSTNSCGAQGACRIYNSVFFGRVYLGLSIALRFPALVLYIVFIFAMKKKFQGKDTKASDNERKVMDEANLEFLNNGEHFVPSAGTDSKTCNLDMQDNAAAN
Protocol: (§6) On study days, venous blood samples from all participants were drawn from forearm vein cannulas before the administration of the pretreatment drugs and 5 minutes before and 0.5, 1, 1.5, 2, 3, 4, 6, 8, 12, and 23 hours after the administration of the index drugs for determination of index drug and metabolite concentrations. Additional venous blood samples for biomarker analyses were drawn before the administration of the pretreatment drugs and 5 minutes before and 3 hours after the administration of the index drugs.
(§7) Plasma repaglinide, OATP1B1 biomarker GCDCA‐3G, OATP1B3 biomarker GCDCA‐3S, and CYP2D6 biomarker solanidine were analyzed using Sciex 5500 Qtrap and Sciex 6500 Qtrap LC–MS systems (AB Sciex, Toronto, ON, Canada) as previously described.[20], [21], [22] The limit of quantification for repaglinide was 0.01 ng/mL. The between‐day precisions (CV%) for quality controls (0.1 and 2.0 ng/mL) were below 10% and accuracies were within ±10%. For GCDCA‐3G and GCDCA‐3S, the limit of quantification was 0.5 ng/mL and the between‐day precisions and accuracies were below 5% and ± 10% at relevant concentrations (10 and 200 ng/mL).
(§8) As for biomarkers, AUC0‐3h values in phases I–III and AUC0‐4h values in phases III–V for GCDCA‐3G and GCDCA‐3S and AUC0‐4h values in phases III and V for M430, M444, and solanidine were calculated with trapezoidal rule in Excel (Microsoft, Redmond, WA).
(§9) Individuals with poor metabolism or transport function phenotype were excluded from respective statistical comparisons. Additionally, to keep comparisons balanced, subjects lacking pharmacokinetic variable data in any study phase were excluded from the respective analyses. Prior to statistical analyses with IBM SPSS Statistics Version 29.0 for Windows (IBM Corporation, Armonk, NY), all pharmacokinetic variable values were logarithmically transformed. Pharmacokinetic variables except T max were compared between different study phases by repeated‐measures analysis of variance with study phase as a within‐subjects factor. T max values were compared with Wilcoxon signed‐rank test. Differences with P < 0.05 after the Bonferroni correction were considered statistically significant. The data are presented as geometrical mean values or geometric mean ratios with geometric CV or 90% confidence intervals (CI) if not otherwise indicated.

[4] = molecular target: CYP2C19 (Homo sapiens, UniProt P33261); settings: index drug data, healthy volunteers
Sequence of CYP2C19 (P33261 whole entry): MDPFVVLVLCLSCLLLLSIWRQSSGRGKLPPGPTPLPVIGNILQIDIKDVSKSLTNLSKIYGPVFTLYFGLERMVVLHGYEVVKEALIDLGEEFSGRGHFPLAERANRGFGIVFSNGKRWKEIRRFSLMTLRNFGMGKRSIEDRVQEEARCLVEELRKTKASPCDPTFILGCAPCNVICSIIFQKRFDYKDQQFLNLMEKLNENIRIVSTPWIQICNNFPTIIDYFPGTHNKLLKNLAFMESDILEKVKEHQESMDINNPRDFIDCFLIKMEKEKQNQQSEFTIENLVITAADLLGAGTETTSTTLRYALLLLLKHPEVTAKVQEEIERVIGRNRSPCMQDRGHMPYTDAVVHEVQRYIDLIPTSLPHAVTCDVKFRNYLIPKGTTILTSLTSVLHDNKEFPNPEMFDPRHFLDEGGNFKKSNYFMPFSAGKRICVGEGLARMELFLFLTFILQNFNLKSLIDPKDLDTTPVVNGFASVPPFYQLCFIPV
Protocol: as §1, §3, §4, §5

[5] = system: OATP1B1; assay: OATP1B1 endogenous biomarker GCDCA-3G in plasma; settings: for OATP1B1 inhibition in the trial: GCDCA-3G biomarker data
Protocol: as §6, §7, §8, §9

[6] = molecular target: T2, CYP2C8 (Homo sapiens, UniProt P10632); assay: CYP2C8 phenotyping with index drug repaglinide; settings: repaglinide index drug data, healthy volunteers
T2 sequence (P10632 1-490): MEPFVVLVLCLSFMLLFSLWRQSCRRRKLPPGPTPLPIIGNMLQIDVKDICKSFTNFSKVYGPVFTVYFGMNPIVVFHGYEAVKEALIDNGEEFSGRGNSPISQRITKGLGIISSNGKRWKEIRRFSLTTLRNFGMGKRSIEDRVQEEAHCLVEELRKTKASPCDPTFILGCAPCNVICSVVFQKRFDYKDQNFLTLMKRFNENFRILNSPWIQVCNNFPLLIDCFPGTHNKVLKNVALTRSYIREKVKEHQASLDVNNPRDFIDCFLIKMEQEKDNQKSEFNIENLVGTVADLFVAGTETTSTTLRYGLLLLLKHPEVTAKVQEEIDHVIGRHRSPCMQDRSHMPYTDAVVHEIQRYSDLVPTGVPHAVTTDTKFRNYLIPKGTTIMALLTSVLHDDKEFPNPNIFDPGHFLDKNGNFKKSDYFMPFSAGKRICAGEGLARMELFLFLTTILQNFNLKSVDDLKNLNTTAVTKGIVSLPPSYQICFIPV
Protocol: as §1, §3
(§10) The limit of quantification for repaglinide was 0.01 ng/mL. […] For GCDCA‐3G and GCDCA‐3S, the limit of quantification was 0.5 ng/mL and the between‐day precisions and accuracies were below 5% and ± 10% at relevant concentrations (10 and 200 ng/mL).
(§11) As for biomarkers, AUC0‐3h values in phases I–III and AUC0‐4h values in phases III–V for GCDCA‐3G and GCDCA‐3S and AUC0‐4h values in phases III and V for M430, M444, and solanidine were calculated with trapezoidal rule in Excel (Microsoft, Redmond, WA). 0‐hour metabolic ratio and AUC0‐4h ratios were calculated for M430/solanidine and M444/solanidine. […]

[7] = system: CYP2B6; settings: 75 mg dose; ref US FDA; cited from earlier work
[8] = system: CYP2C9; settings: index drug data, healthy volunteers
Protocol: as §1, §3, §4, §5

[9] = molecular target: T3, CYP1A2 (Homo sapiens, UniProt P05177); assay: CYP1A2 phenotyping, paraxanthine/caffeine metabolic ratios; assay type: in vivo; settings: index drug data, healthy volunteers
T3 sequence (P05177 1-516): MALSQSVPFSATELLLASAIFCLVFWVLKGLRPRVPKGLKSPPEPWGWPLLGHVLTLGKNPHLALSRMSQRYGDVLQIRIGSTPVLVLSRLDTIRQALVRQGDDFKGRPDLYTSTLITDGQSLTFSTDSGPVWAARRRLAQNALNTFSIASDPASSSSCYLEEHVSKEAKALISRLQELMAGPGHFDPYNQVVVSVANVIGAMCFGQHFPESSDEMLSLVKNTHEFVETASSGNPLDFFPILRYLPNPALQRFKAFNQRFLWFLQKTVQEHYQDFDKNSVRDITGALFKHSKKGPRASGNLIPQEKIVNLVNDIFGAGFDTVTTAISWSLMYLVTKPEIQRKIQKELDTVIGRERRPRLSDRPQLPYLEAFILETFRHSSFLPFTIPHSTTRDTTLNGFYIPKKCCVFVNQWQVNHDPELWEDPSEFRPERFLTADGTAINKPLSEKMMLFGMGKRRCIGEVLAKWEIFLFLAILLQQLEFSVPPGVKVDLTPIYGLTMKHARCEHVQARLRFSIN
Protocol: as §1, §3, §4, §5

[10] = molecular target: T2, CYP2C8; settings: in vivo
Protocol: as §1, §3, §10, §11

[11] = system: CYP2D6; settings: in vivo
Protocol: as §1, §3, §4, §5

[12] = clinical; settings: human, in vivo; for AUC(0-t) / AUC(0-inf) / Cmax: geometric mean (geometric CV); for AUC(0-inf): AUC0-∞; for half-life: t1/2, geometric mean (geometric CV)
Protocol: as §1
(§12) On study days, venous blood samples from all participants were drawn from forearm vein cannulas before the administration of the pretreatment drugs and 5 minutes before and 0.5, 1, 1.5, 2, 3, 4, 6, 8, 12, and 23 hours after the administration of the index drugs for determination of index drug and metabolite concentrations. […] Standardized breakfast was served 1 hour, lunch 3 hours, and snacks 7 and 9 hours after the administration of index drugs.
(§13) Prior to the analysis, the analytes were extracted from the plasma samples with simple protein precipitation. Plasma samples (50 μL) were mixed with acetonitrile solution (200 μL) containing internal standards. The samples were centrifugated and an aliquot of the supernatant was mixed with an equal volume of water before LC–MS analyses.
(§14) The flow rate was 0.3 mL/min, and the gradient program for the mobile phase B was from 20% to 90% over 7 minutes, wash at 90% 7–9.5 minutes, followed by balancing at 20% before next injection. […] The column and mobile phases were the same as above, and the gradient program for the mobile phase B was from 40% to 90% over 5 minutes, wash at 90% 5–7.3 minutes, followed by balancing at 40% before next injection. The quality control samples for each analyte at relevant concentrations were quantified with each batch of plasma samples.
(§15) Individuals with poor metabolism or transport function phenotype were excluded from respective statistical comparisons.

[13] = Safety: adverse effects and blood glucose monitoring; assay type: in vivo, human
Protocol: as §2

[14] = Plasma pharmacokinetics of cocktail index drugs and their metabolites, five-phase crossover trial; settings: phase I: repaglinide 0.05 mg alone;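 further: parameters derived from plasma drug levels quantified by LC–MS with internal standards after acetonitrile protein precipitation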
Protocol: as §1, §12, §13, §14, §15

[15] = OATP1B1 normal/decreased function (N = 13), clopidogrel pretreatment
[16] = OATP1B1 normal/decreased function (N = 13), gemfibrozil pretreatment
[17] = OATP1B1 normal/decreased function (N = 13), phase III full cocktail (control)
[18] = OATP1B1 poor function (N = 3), clopidogrel pretreatment
[19] = OATP1B1 poor function (N = 3), gemfibrozil pretreatment
[20] = OATP1B1 poor function (N = 3), phase III full cocktail (control)
[21] = N = 16, clopidogrel pretreatment
[22] = N = 16, gemfibrozil pretreatment
[23] = N = 16, phase III full cocktail (control)
[24] = 0.05 mg, phase I: repaglinide 0.05 mg alone
[25] = phase IV: clopidogrel 300 mg pretreatment + full cocktail
[26] = phase V: gemfibrozil 600 mg b.i.d. 3 days pretreatment + full cocktail

COC(=O)[C@H](c1ccccc1Cl)N1CCc2sccc2C1 [Clopidogrel, clopidogrel]
Cmax [1]: 3.75 ng/mL
AUC(0-t) ([1]; read-out: AUC0-24h, geometric mean (90% CI)): 11.6 ng·h/mL
CYP2B6 inhibition strength in the trial [2]: moderate
OATP1B3 inhibition in the trial [3]: did not affect
CYP2C19 inhibition strength in the trial [4]: weak
OATP1B1 inhibition in the trial [5]: did not affect
CYP2C8 inhibition strength in the trial [6]: moderate
CYP2B6 inhibitor classification [7]: weak

C[C@H](CCC(=O)NCC(=O)O)[C@H]1CC[C@H]2[C@@H]3[C@H](O)C[C@@H]4C[C@H](O[C@@H]5O[C@H](C(=O)O)[C@@H](O)[C@H](O)[C@H]5O)CC[C@]4(C)[C@H]3CC[C@]12C [GCDCA‐3G, glycochenodeoxycholate 3‐O‐glucuronide]
GCDCA-3G AUC0-4h, geometric mean (geometric CV) [5, 15]: 77.5 (69.9%) ng × h/mL
GCDCA-3G C0, geometric mean (geometric CV) [5, 15]: 21.7 (81.7%) ng/mL
GCDCA-3G AUC0-4h, geometric mean (geometric CV) [5, 16]: 118 (65.4%) ng × h/mL
GCDCA-3G C0, geometric mean (geometric CV) [5, 16]: 35.7 (82.5%) ng/mL
GCDCA-3G AUC0-3h, geometric mean (geometric CV) [5, 17]: 66.3 (49.6%) ng×h/mL
GCDCA-3G AUC0-4h, geometric mean (geometric CV) [5, 17]: 88.6 (51.3%) ng × h/mL
GCDCA-3G C0, geometric mean (geometric CV) [5, 17]: 22.9 (60.0%) ng/mL
GCDCA-3G AUC0-3h, geometric mean (geometric CV) ([5]; OATP1B1 normal/decreased function (N=13), phase I repaglinide only): 68.3 (61.0%) ng×h/mL
GCDCA-3G AUC0-3h, geometric mean (geometric CV) ([5]; OATP1B1 normal/decreased function (N=13), phase II Geneva cocktail only): 63.6 (75.2%) ng×h/mL
GCDCA-3G AUC0-4h, geometric mean (geometric CV) [5, 18]: 791 (56.1%) ng × h/mL
GCDCA-3G C0, geometric mean (geometric CV) [5, 18]: 238 (57.2%) ng/mL
GCDCA-3G AUC0-4h, geometric mean (geometric CV) [5, 19]: 809 (75.4%) ng × h/mL
GCDCA-3G C0, geometric mean (geometric CV) [5, 19]: 215 (79.1%) ng/mL
GCDCA-3G AUC0-4h, geometric mean (geometric CV) [5, 20]: 755 (48.4%) ng × h/mL
GCDCA-3G C0, geometric mean (geometric CV) [5, 20]: 206 (73.8%) ng/mL

C[C@H](CCC(=O)NCC(=O)O)C1CCC2C3C(CC[C@@]21C)[C@@]1(C)CC[C@@H](OS(=O)(=O)O)C[C@H]1C[C@H]3O (stereo partly drawn) [GCDCA‐3S, glycochenodeoxycholate 3‐sulfate]
GCDCA-3S AUC0-4h, geometric mean (geometric CV) [3, 21]: 146 (61.8%) ng × h/mL
GCDCA-3S C0, geometric mean (geometric CV) [3, 21]: 49.2 (69.3%) ng/mL
GCDCA-3S AUC0-4h, geometric mean (geometric CV) [3, 22]: 212 (46.9%) ng × h/mL
GCDCA-3S C0, geometric mean (geometric CV) [3, 22]: 65.5 (72.9%) ng/mL
GCDCA-3S AUC0-3h, geometric mean (geometric CV) [3, 23]: 141 (68.3%) ng×h/mL
GCDCA-3S AUC0-4h, geometric mean (geometric CV) [3, 23]: 190 (67.4%) ng × h/mL
GCDCA-3S C0, geometric mean (geometric CV) [3, 23]: 50.8 (85.3%) ng/mL
GCDCA-3S AUC0-3h, geometric mean (geometric CV) ([3]; N=16, phase I repaglinide only): 119 (69.0%) ng×h/mL
GCDCA-3S AUC0-3h, geometric mean (geometric CV) ([3]; N=16, phase II Geneva cocktail only): 106 (65.4%) ng×h/mL

Cc1ccc(C)c(OCCCC(C)(C)C(=O)O)c1 [Gemfibrozil, gemfibrozil]
CYP2C9 inhibition in the trial [8]: lack of any clinically meaningful
CYP1A2 inhibition strength in the trial [9]: weak
OATP1B3 inhibition in the trial [3]: does not affect
OATP1B1 inhibition in the trial [5]: slightly inhibits and weak
CYP2C8 inhibition strength in the trial [10]: strong
CYP2D6 inhibition in the trial [11]: lack of any clinically meaningful

CCOc1cc(CC(=O)N[C@@H](CC(C)C)c2ccccc2N2CCCCC2)ccc1C(=O)O [Repaglinide, repaglinide]
AUC(0-t) ([12]; 0.05 mg, AUC0-4h, phase I: repaglinide 0.05 mg alone): 0.936 ng·h/mL
AUC(0-t) ([12]; 0.05 mg, AUC0-23h, phase I: repaglinide 0.05 mg alone): 1.01 ng·h/mL
AUC(0-inf) [12, 24]: 1.01 ng·h/mL
Cmax [12, 24]: 0.701 ng/mL
half-life [12, 24]: 1.07 h
AUC(0-t) ([12]; AUC0-4h, phase IV: clopidogrel 300 mg pretreatment + full cocktail): 3.7 ng·h/mL
AUC(0-t) ([12]; AUC0-4h, phase V: gemfibrozil 600 mg b.i.d. 3 days pretreatment + full cocktail): 4.93 ng·h/mL
AUC(0-t) ([12]; AUC0-23h, phase IV: clopidogrel 300 mg pretreatment + full cocktail): 5.55 ng·h/mL
AUC(0-t) ([12]; AUC0-23h, phase V: gemfibrozil 600 mg b.i.d. 3 days pretreatment + full cocktail): 9.21 ng·h/mL
AUC(0-inf) [12, 25]: 5.65 ng·h/mL
AUC(0-inf) [12, 26]: 9.64 ng·h/mL
Cmax [12, 25]: 1.69 ng/mL
Cmax [12, 26]: 2.08 ng/mL
Tmax ([12]; Tmax, median (range), phase IV: clopidogrel 300 mg pretreatment + full cocktail): 1 h
half-life [12, 25]: 2.78 h
half-life [12, 26]: 3.35 h
Hypoglycemia ([13]; 0.05 mg repaglinide, breakfast an hour later, also after gemfibrozil pretreatment): no hypoglycemia was observed
Safety / adverse effects ([13]; all study phases, 16 healthy volunteers): safe
Tmax, median (range) [14]: 0.5 (0.5-1.0) h
